Entries after “also recorded” stand apart in the source; their conditions may differ.
Experiments:
GSK3α = GSK3α (Homo sapiens, UniProt P49840); assay: GSK3α inhibition, motility-shift microfluidic assay (Caliper) at Km of ATP; format: biochemical
Procedure: FIG. 12. […] (a) General synthetic scheme for synthesis of the pyrazolo-tetrahydroquinolinone scaffold. (b) IC50 GSK3α and GSK3β values for inhibition were determined at Km of ATP in a motility-shift microfluidic assay (Caliper, MA) measuring phosphorylation of a synthetic substrate. Values are average of three or more experiments. Data are shown as IC50 values in μM±standard deviation. Compounds were tested in duplicate in a 12-point dose curve with 3-fold dilution starting at 33.3 μM. […] Each inhibitor was screened against 311 kinases at a 10 μM concentration.

[1] = system: β-catenin heterozygous mice; assay: Muscle grip strength test in β-catenin heterozygous mice; format: in vivo, mouse; conditions: 30 mg/kg doses, young adult βcatHet mice
Procedure: (§1) Drug treatments using small molecule GSK3α and GSK3β inhibitors were tested in vivo, for safe and effective amelioration of the phenotypes by assaying β-catenin protein levels, learning and motor skills effects of drug vs. vehicle on CTNNB1 heterozygote mice and control littermates. In an example, a study includes administering the small molecule GSK3 inhibitor in sequential daily doses to the βcatHet mice. The daily doses can be administered, for example, for five days, or four days, or any other number of days. At some time after the last dose, such as 1 hour, the grip strength test can be administered. Additionally, the contextual fear conditioning can be performed. Sometime later, such as 1 day later, the contextual fear conditioning tests can be performed.
(§2) Mice were administered 30 mg/kg doses of the respective compounds in the present Example. Samples of the brain and muscle from control mice, βcatHet mice (untreated), and βcatHet mice (treated) were tested for levels of β-catenin.

[2] = system: β-catenin heterozygous mice; assay: Contextual fear conditioning (learning) in β-catenin heterozygous mice; format: in vivo, mouse; conditions: 30 mg/kg doses, young adult βcatHet mice
Procedure: FIG. 2. […] Classic spatial learning task that pairs association of a particular context with a mild foot shock; freezing in the context is measured as an indicator of learning; n=26 control, 24 BcatHet; p<0.0001 Repeated Measure ANOVA; **p<0.01, ***p<0.001 multiple comparison t-test.
as §1, §2

GSK3β = GSK3β (Homo sapiens, UniProt P49841); assay: GSK3β inhibition, motility-shift microfluidic assay (Caliper) at Km of ATP; format: biochemical; conditions: for IC50: at Km of ATP
Procedure: FIG. 12. Design and characterization of first paralog selective inhibitors of GSK3α and GSK3β. (a) General synthetic scheme for synthesis of the pyrazolo-tetrahydroquinolinone scaffold. (b) IC50 GSK3α and GSK3β values for inhibition were determined at Km of ATP in a motility-shift microfluidic assay (Caliper, MA) measuring phosphorylation of a synthetic substrate. Values are average of three or more experiments. Data are shown as IC50 values in μM±standard deviation. Compounds were tested in duplicate in a 12-point dose curve with 3-fold dilution starting at 33.3 μM. […] Each inhibitor was screened against 311 kinases at a 10 μM concentration. Kinases with >50% inhibition are depicted (percentage inhibition proportional to size of red dot).
Structure-based design has been aimed towards maximizing steric requirement at the R position and the corresponding differences within the selectivity pockets of GSK3α and GSK3β. […] These modifications and increased binding affinities were tolerant of simple substitutions on the phenyl ring (cf. BRD0320).

β-catenin protein levels = β-catenin protein levels in brain and skeletal muscle of treated β-catenin heterozygous mice, quantitative immunoblotting; format: in vivo, mouse; conditions: 30 mg/kg doses, young adult βcatHet mice
Procedure: as §1, §2

[3] = system: CTNNB1 heterozygous iPSCs; assay: β-catenin and DKK1 protein levels in CTNNB1 heterozygous iPSCs, pilot dose-response, quantitative immunoblotting; format: cell-based, human
Source text: FIG. 14. FIG. 1. GSK3α,β inhibitors increase β-cat protein levels in (a) human CTNNB1 heterozygous glutamatergic neurons treated with BRD0320, relative to vehicle-treated het neurons, and (b) CTNNB1 het iPSCs treated with BRD0320 and LY2090314 at the indicated concentrations. Wnt target, DKK1 protein levels show similar increases to β-cat. Histograms showing comparison to (a) WT neuron levels set as 1 and (b) vehicle-treated het iPSC levels set as 1. LY2090314 increases β-cat protein levels at 10× lower concentration relative to BRD0320.
A human pluripotent stem cell line (iPSC) that lacks any pathogenic variants was made heterozygous for CTNNB1 via CRISPR-Cas9 gene editing of one allele. A premature termination (PTC+1) frameshift was introduced based on a CTNNB1 syndrome patient mutation. Haploinsufficiency was confirmed. The iPSCs were differentiated to cortical glutamatergic neurons by transfection with the transcription factor human neurogenin 2. […] As shown in FIG. 14 (a), beta-catenin protein levels were measured 24 hrs later by quantitative immunoblotting in the GSK3 inhibitor treated CTNNB1 heterozygous neurons, relative to vehicle-treated heterozygous neurons and wildtype neurons.
Beta-catenin protein levels were measured 24 hrs later by quantitative immunoblotting in the GSK3 inhibitor treated CTNNB1 heterozygous iPSCs, relative to vehicle-treated heterozygous iPSCs.

GSK3β, sequence (P49841 whole entry): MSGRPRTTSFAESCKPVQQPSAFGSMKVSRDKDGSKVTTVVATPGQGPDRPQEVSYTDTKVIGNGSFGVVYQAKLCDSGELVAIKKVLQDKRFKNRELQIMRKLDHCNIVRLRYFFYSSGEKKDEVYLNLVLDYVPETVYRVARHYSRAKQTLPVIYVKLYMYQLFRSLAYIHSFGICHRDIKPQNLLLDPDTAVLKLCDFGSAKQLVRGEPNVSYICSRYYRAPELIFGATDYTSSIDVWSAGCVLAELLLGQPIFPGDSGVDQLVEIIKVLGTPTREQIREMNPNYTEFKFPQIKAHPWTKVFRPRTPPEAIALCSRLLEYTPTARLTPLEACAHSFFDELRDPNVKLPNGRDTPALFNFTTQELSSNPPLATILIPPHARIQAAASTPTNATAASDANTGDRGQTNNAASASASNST
GSK3α, sequence (P49840 whole entry): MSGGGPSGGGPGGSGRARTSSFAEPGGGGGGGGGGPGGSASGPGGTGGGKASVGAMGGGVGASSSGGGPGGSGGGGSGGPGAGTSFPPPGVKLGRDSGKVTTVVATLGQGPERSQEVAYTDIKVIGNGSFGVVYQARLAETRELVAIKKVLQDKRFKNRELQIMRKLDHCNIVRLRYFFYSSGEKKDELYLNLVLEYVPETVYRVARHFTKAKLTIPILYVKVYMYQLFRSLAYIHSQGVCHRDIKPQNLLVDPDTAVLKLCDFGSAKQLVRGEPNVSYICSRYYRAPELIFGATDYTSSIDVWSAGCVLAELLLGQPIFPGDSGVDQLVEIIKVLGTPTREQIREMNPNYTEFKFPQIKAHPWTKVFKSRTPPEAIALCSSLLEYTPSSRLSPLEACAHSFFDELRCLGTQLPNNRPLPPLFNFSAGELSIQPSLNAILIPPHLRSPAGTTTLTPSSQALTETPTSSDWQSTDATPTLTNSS

SMILES	muscle grip strength [1]	learning (contextual fear conditioning) [2]	IC50 (GSK3β)	further results
CC1(C)CC(=O)C2=C(C1)Nc1n[nH]c(C3CC3)c1[C@]2(C)c1ccccc1 [BRD0209]				potency for the two paralogs GSK3α and GSK3β (GSK3α): Equipotency
CC[C@@]1(c2ccccc2)C2=C(CC(C)(C)CC2=O)Nc2[nH]ncc21 [BRD0705]	did not display a significant trend to improvements; also recorded: slight trend (not significant) toward improvements	did not display a significant trend to improvements; also recorded: slight trend (not significant) toward improvements	515 nM	
CC(C)(C)Cc1[nH]nc2c1[C@](C)(c1ccccc1)C1=C(CC(C)(C)CC1=O)N2 [BRD3731]	significant increase; also recorded: trend toward improvement	slight significant improvement	15 nM	β-catenin protein levels in β-catenin heterozygous mouse brain and skeletal muscle relative to vehicle treated heterozygote (β-catenin protein levels): significantly increased; IC50 (GSK3α; at Km of ATP): 215 nM; selectivity for GSK3β (GSK3β): 14 fold
O=C1NC(=O)C(c2cnc3ccccn23)=C1c1cn2c3c(cc(F)cc13)CN(C(=O)N1CCCCC1)CC2 [LY2090314, 3-(9-fluoro-2-(piperidine-1-carbonyl)-1,2,3,4-tetrahydro-[1,4]diazepino[6,7,1-hi]indol-7-yl)-4-(imidazo[1,2-a]pyridin-3-yl)-1H-pyrrole-2,5-dione]				β-cat protein levels in CTNNB1 het iPSCs relative to vehicle-treated het iPSCs ([3]; BRD0320 10 μM, 30 μM, LY2090314 0.1 μM, 0.3 μM, 24 hrs): increase; concentration that increases β-cat protein levels, relative to BRD0320 ([3]; CTNNB1 het iPSCs): 10 × lower
